1 substance from US20060188867A1, “Method of cryopreserving cells and tissues by liposomal delivery of sugars to enhance post-thaw viability” (Canadian Blood Services, priority 2005, published 2006) can be followed below.

For the data set, the system named is red blood cells (RBCs). The experiment in a line: flow cytometry of liposomal loading of carboxyfluorescein/trehalose into red blood cells, FIGS. 1A-1E. The class given is cell-based, human. The note with it: no liposomes (FIG. 1C). The procedure: However, it should be noted that the ratio of DPPC to cholesterol can, of course, be varied, as will be appreciated by those of ordinary skill in the art. The liposomes also have an aqueous core that can be composed of, by way of example only, 3.3 mM NaCl, 40 mM KCl, 1.7 mM glucose, 6.7 mM HEPES, 200 mM sucrose or trehalose and 100 μM 5(6)-carboxyfluorescein (CF). As it is known in the art, 5(6)-CF is an impermeable fluorescent marker with a molecular weight similar to that of sucrose and trehalose. This marker can be used to detect the liposome population using flow cytometry and is thus a useful and reliable indicator of loading efficiency. A single uniform population and intense FITC (Fluorescein isothiocyanate) peak verify liposome homogeneity and entrapment of the marker in the aqueous core.
In order to validate the methods described herein, human red blood cells and TF-1 (CRL2003, ATTC) cells were used as […] model systems. The mechanism of liposomal interaction with the cell is believed to be cell-type dependent and is believed to involve processes of adsorption, fusion and endocytosis.
FIGS. 1A to 1E are flow cytometry plots used to examine the effects of loading trehalose into red blood cells (RBCs). Liposomes composed of DPPC/cholesterol in the ratio of 70:30 were constructed so as to have a concentration of 0.29M trehalose inside and outside. […]
Background: In flow cytometry, cells or beads pass a laser one at a time.

For the substance 5(6)-carboxyfluorescein [CF], the “permeation of free CF into RBCs (fluorescence of RBCs in CF-containing media)” value is reported as “cannot cross into RBCs”.
